Laboratory results published in the supplement of paper PMC10307832.

What was measured:
Assay in all cases: relative viability (nuclei count vs DMSO), 5 days (fraction); higher = more cells survive
[1] = compound: CN(C)C[C@@H]1CCn2cc(c3ccccc32)C2=C(C(=O)NC2=O)c2cn(c3ccccc23)CCO1 [Ruboxistaurin] + CC(=O)c1c(C)c2cnc(Nc3ccc(N4CCNCC4)cn3)nc2n(C2CCCC2)c1=O [Palbociclib] (partner 0.5 µM)
Procedure, shortened: (§1)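 Nuclei were stained with Hoechst during a one-step fixation (final 0.05% Triton X-100, 1% formaldehyde, 1 ug/ml Hoechst) carried out 5 days after dosing, then counted on 4× images. The cells, lung cancer lines in 1536-well plates, had been dosed by pin tool the day after seeding with one drug alone or a fixed anchor-drug dose plus five library-drug doses (not always all listed) in √10 steps. Relative viability is the nuclei count in treated wells divided by that in vehicle wells, and each value is the median of duplicate plates.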

[2] = compound: CN(C)C[C@@H]1CCn2cc(c3ccccc32)C2=C(C(=O)NC2=O)c2cn(c3ccccc23)CCO1 [Ruboxistaurin] + CC(C)C[C@H](NC(=O)[C@H](Cc1ccccc1)NC(=O)c1cnccn1)B(O)O [Bortezomib] (partner 0.002 µM)
Procedure, shortened: as §1

[3] = compound: CN(C)C[C@@H]1CCn2cc(c3ccccc32)C2=C(C(=O)NC2=O)c2cn(c3ccccc23)CCO1 [Ruboxistaurin] + COc1cc2c(Oc3ccc(NC(=O)C4(C(=O)Nc5ccc(F)cc5)CC4)cc3F)ccnc2cc1OCCCN1CCOCC1 [Foretinib] (partner 0.25 µM)
Procedure, shortened: as §1

[4] = compound: CN(C)C[C@@H]1CCn2cc(c3ccccc32)C2=C(C(=O)NC2=O)c2cn(c3ccccc23)CCO1 [Ruboxistaurin] + Nc1nc2[nH]cc(CCc3ccc(C(=O)N[C@@H](CCC(=O)O)C(=O)O)cc3)c2c(=O)[nH]1 [Pemetrexed] (partner 0.2 µM)
Procedure, shortened: as §1

[5] = compound: CN(C)C[C@@H]1CCn2cc(c3ccccc32)C2=C(C(=O)NC2=O)c2cn(c3ccccc23)CCO1 [Ruboxistaurin] + Nc1ncn([C@H]2C[C@H](O)[C@@H](CO)O2)c(=O)n1 [Decitabine] (partner 2 µM)
Procedure, shortened: as §1

Cell Line | relative viability ([1]; first compound 0.08 µM) | relative viability ([1]; first compound 0.8 µM) | relative viability ([1]; first compound 2.53 µM) | relative viability ([1]; first compound 8 µM) | relative viability ([2]; first compound 0.08 µM) | relative viability ([2]; first compound 0.8 µM) | relative viability ([2]; first compound 2.53 µM) | relative viability ([2]; first compound 8 µM) | relative viability ([3]; first compound 0.08 µM) | relative viability ([3]; first compound 0.8 µM) | relative viability ([3]; first compound 2.53 µM) | relative viability ([3]; first compound 8 µM) | relative viability ([4]; first compound 0.08 µM) | relative viability ([4]; first compound 0.8 µM) | relative viability ([4]; first compound 2.53 µM) | relative viability ([4]; first compound 8 µM) | relative viability ([5]; first compound 0.08 µM) | relative viability ([5]; first compound 0.8 µM) | relative viability ([5]; first compound 2.53 µM) | relative viability ([5]; first compound 8 µM)
201T | 0.357 | 0.344 | 0.353 | 0.37 | 1.12 | 1.08 | 1.12 | 1.15 | 1.17 | 1.02 | 1.19 | 0.995 | 0.31 | 0.327 | 0.311 | 0.31 | 0.858 | 0.834 | 0.824 | 0.914
A549 | – | – | – | – | – | – | – | – | 1.04 | 0.935 | 1.06 | 0.962 | – | – | – | – | 0.264 | 0.217 | 0.307 | 0.305
A-427 | 0.554 | 0.524 | 0.5 | 0.538 | 1.01 | 0.952 | 0.97 | 0.731 | 1.01 | 0.952 | 0.928 | 0.659 | 0.994 | 0.926 | 0.958 | 0.923 | 0.605 | 0.527 | 0.564 | 0.548
ABC-1 | 0.953 | 0.724 | 0.968 | 1.05 | 0.357 | 0.339 | 0.308 | 0.261 | 1.21 | 1.13 | 1.26 | 1.11 | – | – | – | – | 1.19 | 0.696 | 1.26 | 0.942
BEN | 0.415 | 0.453 | 0.522 | 0.495 | 0.903 | 0.78 | 0.702 | 0.677 | 0.725 | 0.722 | 0.712 | 0.49 | 0.801 | 0.695 | 0.716 | 0.528 | 0.815 | 0.698 | 0.724 | 0.549
CAL-12T | 0.476 | 0.426 | 0.419 | 0.483 | 1.12 | 0.981 | 1.06 | 1.11 | 1.28 | 1.18 | 1.16 | 1.16 | 1.35 | 1.19 | 1.12 | 1.28 | – | – | – | –
COR-L23 | 0.261 | 0.267 | 0.313 | 0.372 | 1.1 | 0.797 | 0.968 | 1.35 | 1.06 | 0.951 | 1.11 | 1.05 | 0.193 | 0.182 | 0.204 | 0.192 | 0.427 | 0.384 | 0.467 | 0.487
COR-L 105 | 0.418 | 0.389 | 0.411 | 0.416 | 0.906 | 0.651 | 0.823 | 0.685 | 1.37 | 0.826 | 1.1 | 0.87 | 1.3 | 0.912 | 1.05 | 1.26 | 0.618 | 0.595 | 0.681 | 0.611
ChaGo-K-1 | 0.898 | 0.889 | 0.933 | 0.98 | 1.27 | 1.06 | 1.05 | 0.939 | 0.916 | 0.888 | 0.965 | 0.912 | 0.272 | 0.247 | 0.26 | 0.267 | 0.592 | 0.487 | 0.53 | 0.535
